Data taken from paper PMC6566410, “Novel Diamide-Based Benzenesulfonamides as Selective Carbonic Anhydrase IX Inhibitors Endowed with Antitumor Activity: Synthesis, Biological Evaluation and In Silico Insights” (International Journal of Molecular Sciences, 2019).

How the values were obtained:
Test in all cases: NCI one-dose SRB assay
Type in all cases: cell-based
[1] = tested on: 786-0; settings: Homo sapiens, 786-0 (Renal Cancer), 1.00E-5 Molar, read-out: Growth Percent
Method in brief: (§1)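 NCI-60 one-dose protocol: compound at 10^−5 M; growth and viability quantified with SRB dye.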

[2] = tested on: A498; settings: Homo sapiens, A498 (Renal Cancer), 1.00E-5 Molar, read-out: Growth Percent
Method in brief: as §1

[3] = tested on: A549/ATCC; settings: Homo sapiens, A549/ATCC (Non-Small Cell Lung Cancer), 1.00E-5 Molar, read-out: Growth Percent
Method in brief: as §1

[4] = tested on: CAKI-1; settings: Homo sapiens, CAKI-1 (Renal Cancer), 1.00E-5 Molar, read-out: Growth Percent
Method in brief: as §1

[5] = tested on: DU-145; settings: Homo sapiens, DU-145 (Prostate Cancer), 1.00E-5 Molar, read-out: Growth Percent
Method in brief: as §1

[6] = tested on: EKVX; settings: Homo sapiens, EKVX (Non-Small Cell Lung Cancer), 1.00E-5 Molar, read-out: Growth Percent
Method in brief: as §1

[7] = tested on: HCC-2998; settings: Homo sapiens, HCC-2998 (Colon Cancer), 1.00E-5 Molar, read-out: Growth Percent
Method in brief: as §1

[8] = tested on: HCT-116; settings: Homo sapiens, HCT-116 (Colon Cancer), 1.00E-5 Molar, read-out: Growth Percent
Method in brief: as §1

[9] = tested on: HCT-15; settings: Homo sapiens, HCT-15 (Colon Cancer), 1.00E-5 Molar, read-out: Growth Percent
Method in brief: as §1

[10] = tested on: HL-60(TB); settings: Homo sapiens, HL-60(TB) (Leukemia), 1.00E-5 Molar, read-out: Growth Percent
Method in brief: as §1

[11] = tested on: HOP-62; settings: Homo sapiens, HOP-62 (Non-Small Cell Lung Cancer), 1.00E-5 Molar, read-out: Growth Percent
Method in brief: as §1

[12] = tested on: HOP-92; settings: Homo sapiens, HOP-92 (Non-Small Cell Lung Cancer), 1.00E-5 Molar, read-out: Growth Percent
Method in brief: as §1

[13] = tested on: HT29; settings: Homo sapiens, HT-29, HT29 (Colon Cancer), 1.00E-5 Molar, read-out: Growth Percent
Method in brief: as §1

[14] = tested on: K-562; settings: Homo sapiens, K562, K-562 (Leukemia), 1.00E-5 Molar, read-out: Growth Percent
Method in brief: as §1

[15] = tested on: LOX IMVI; settings: Homo sapiens, LOX IMVI (Melanoma), 1.00E-5 Molar, read-out: Growth Percent
Method in brief: as §1

[16] = tested on: M14; settings: Homo sapiens, M14 (Melanoma), 1.00E-5 Molar, read-out: Growth Percent
Method in brief: as §1

[17] = tested on: MDA-MB-435; settings: Homo sapiens, MDA-MB-435 (Melanoma), 1.00E-5 Molar, read-out: Growth Percent
Method in brief: as §1

[18] = tested on: NCI-H226; settings: Homo sapiens, NCI-H226 (Non-Small Cell Lung Cancer), 1.00E-5 Molar, read-out: Growth Percent
Method in brief: as §1

[19] = tested on: NCI-H23; settings: Homo sapiens, NCI-H23 (Non-Small Cell Lung Cancer), 1.00E-5 Molar, read-out: Growth Percent
Method in brief: as §1

[20] = tested on: NCI-H322M; settings: Homo sapiens, NCI-H322M (Non-Small Cell Lung Cancer), 1.00E-5 Molar, read-out: Growth Percent
Method in brief: as §1

[21] = tested on: NCI-H460; settings: Homo sapiens, NCI-H460 (Non-Small Cell Lung Cancer), 1.00E-5 Molar, read-out: Growth Percent
Method in brief: as §1

[22] = tested on: NCI-H522; settings: Homo sapiens, NCI-H522 (Non-Small Cell Lung Cancer), 1.00E-5 Molar, read-out: Growth Percent
Method in brief: as §1

[23] = tested on: OVCAR-5; settings: Homo sapiens, OVCAR-5 (Ovarian Cancer), 1.00E-5 Molar, read-out: Growth Percent
Method in brief: as §1

[24] = tested on: PC-3; settings: Homo sapiens, PC-3 (Prostate Cancer), 1.00E-5 Molar, read-out: Growth Percent
Method in brief: as §1

[25] = tested on: RXF 393; settings: Homo sapiens, RXF 393 (Renal Cancer), 1.00E-5 Molar, read-out: Growth Percent
Method in brief: as §1

[26] = tested on: SF-539; settings: Homo sapiens, SF-539 (CNS Cancer), 1.00E-5 Molar, read-out: Growth Percent
Method in brief: as §1

[27] = tested on: SK-MEL-5; settings: Homo sapiens, SK-MEL-5 (Melanoma), 1.00E-5 Molar, read-out: Growth Percent
Method in brief: as §1

[28] = tested on: TK-10; settings: Homo sapiens, TK-10 (Renal Cancer), 1.00E-5 Molar, read-out: Growth Percent
Method in brief: as §1

[29] = tested on: U251; settings: Homo sapiens, U-251, U251 (CNS Cancer), 1.00E-5 Molar, read-out: Growth Percent
Method in brief: as §1

[30] = tested on: UACC-257; settings: Homo sapiens, UACC-257 (Melanoma), 1.00E-5 Molar, read-out: Growth Percent
Method in brief: as §1

[31] = tested on: UACC-62; settings: Homo sapiens, UACC-62 (Melanoma), 1.00E-5 Molar, read-out: Growth Percent
Method in brief: as §1

Row | SMILES | activity at 10 µM [1] | activity at 10 µM [2] | activity at 10 µM [3] | activity at 10 µM [4] | activity at 10 µM [5] | activity at 10 µM [6] | activity at 10 µM [7] | activity at 10 µM [8] | activity at 10 µM [9] | activity at 10 µM [10] | activity at 10 µM [11] | activity at 10 µM [12] | activity at 10 µM [13] | activity at 10 µM [14] | activity at 10 µM [15] | activity at 10 µM [16] | activity at 10 µM [17] | activity at 10 µM [18] | activity at 10 µM [19] | activity at 10 µM [20] | further results
1 | COc1ccc(C=C(NC(=O)c2ccccc2)C(=O)Nc2ccc(S(N)(=O)=O)cc2)cc1OC [Compound 5g, N-(1-(3,4-Dimethoxyphenyl)-3-oxo-3-((4-sulfamoylphenyl)amino)prop-1-en-2-yl)benzamide] | 109% | 109% | 106% | 104% | 117% | 103% | 106% | 109% | 101% | 101% | 102% | 126% | 106% | 108% | 100% | 113% | 107% | 93.3% | 102% | 110% | activity at 10 µM [21]: 107%; activity at 10 µM [22]: 89.1%; activity at 10 µM [23]: 103%; activity at 10 µM [24]: 103%; activity at 10 µM [25]: 118%; activity at 10 µM [26]: 92.6%; activity at 10 µM [27]: 99.3%; activity at 10 µM [28]: 110%; activity at 10 µM [29]: 96.3%; activity at 10 µM [30]: 101%; activity at 10 µM [31]: 94.3%
2 | NS(=O)(=O)c1ccc(NC(=O)C(=Cc2ccc(Br)cc2)NC(=O)c2ccccc2)cc1 [Compound 5c, N-(1-(4-Bromophenyl)-3-oxo-3-((4-sulfamoylphenyl)amino)prop-1-en-2-yl)benzamide] | 96% | 94.5% | 102% | 91% | 108% | 102% | 103% | 92% | 92.5% | 96.9% | 104% | 94% | 89.1% | 92.8% | 99.7% | 109% | 95% | 97.2% | 100% | 100% | activity at 10 µM [21]: 107%; activity at 10 µM [22]: 87.9%; activity at 10 µM [23]: 99.8%; activity at 10 µM [24]: 92.7%; activity at 10 µM [25]: 95.8%; activity at 10 µM [26]: 92.8%; activity at 10 µM [27]: 93.1%; activity at 10 µM [28]: 102%; activity at 10 µM [29]: 93.1%; activity at 10 µM [30]: 105%; activity at 10 µM [31]: 88.1%
3 | NS(=O)(=O)c1ccc(NC(=O)C(=Cc2ccc(Cl)cc2Cl)NC(=O)c2ccccc2)cc1 [Compound 5b, N-(1-(2,4-Dichlorophenyl)-3-oxo-3-((4-sulfamoylphenyl)amino)prop-1-en-2-yl)benzamide] | 104% | 95% | 105% | 88.6% | 109% | 99.6% | 103% | 97.3% | 110% | 84.8% | 95.7% | 87% | 103% | 88.2% | 96.2% | 102% | 97.7% | 103% | 107% | 102% | activity at 10 µM [21]: 105%; activity at 10 µM [22]: 80.3%; activity at 10 µM [23]: 108%; activity at 10 µM [24]: 89.4%; activity at 10 µM [25]: 96%; activity at 10 µM [26]: 95.7%; activity at 10 µM [27]: 90.2%; activity at 10 µM [28]: 104%; activity at 10 µM [29]: 97.1%; activity at 10 µM [30]: 102%; activity at 10 µM [31]: 75%
